Key:
[1] = test system: transplanted tumor of human prostate cancer cell PC3; experiment: PC3 transplanted tumor in nude mice
Method: (§1) Then cell concentration was adjusted to 1×10^7/ml with matrigel, then each nude mouse was inoculated subcutaneously with 0.2 ml of cells at its right armpit and recorded as the first day of inoculation. When the tumor grows to be greater than or equal to 100 mm^3, the mice were randomly divided into 11 groups with 6 mice in each group: a model group, a cyclophosphamide group, isovaleryl spiramycin I groups with doses of 25, 50 and 100 mg/kg, isovaleryl spiramycin II groups with doses of 25, 50 and 100 mg/kg, and isovaleryl spiramycin III groups with doses of 25, 50 and 100 mg/kg. Each group was continuously administered intragastrically for 30 days with a dose of 20 ml/kg. The mice were sacrificed the next day after drug withdrawal and the indicators were tested. The long diameter and short diameter of the tumor, and the body weight of each mouse were recorded every 3 days from drug administration to nude mouse sacrifice.
(§2) The body weight of the nude mice and the long diameter (a) and short diameter (b) of the transplanted tumor were measured every 3 days, and the tumor volume (v), relative tumor volume (RTV) and relative tumor proliferation rate (T/C) are calculated respectively according to the following formulas, wherein V=a×b^2/2; RTV=V/V0 (V0 is the tumor volume before administration, V is the tumor volume before sacrifice), and T/C (%)=treatment group RTV/model control group RTV×100%.
(§3) Each mouse was weighed and sacrificed. After the tumor was completely stripped off from the body of the mouse, the non-tumor tissues such as blood stains and fat were removed to weigh the tumor and calculate the tumor growth inhibition rate. The average tumor weight of each group of mice is used as an indicator of efficacy. Tumor growth inhibition rate (%)=(1−the average tumor weight of the treatment group/the average tumor weight of the model group)×100%.

[2] = test system: transplanted tumor of human glioma cell U251; experiment: U251 transplanted tumor in nude mice; settings: for Tumor Volume (mm3) (d 1): d1
Method: as §1, with “U251 cells in a logarithmic growth phase were taken and subjected to a trypan blue exclusion experiment showing that the cell viability was more than 95%, then the cells were subjected to trypsinization, centrifugation, and supernatant removal. Then” for “Then”
as §2, §3

[3] = test system: transplanted tumor of human esophageal cancer cell TE-1; experiment: TE-1 transplanted tumor in nude mice
Method: as §1, §2, §3

[4] = PC3, 25 mg/kg (low dose) i.g. 30 days
[5] = PC3, 50 mg/kg (medium dose) i.g. 30 days
[6] = PC3, 100 mg/kg (high dose) i.g. 30 days
[7] = U251, high dose (100 mg/kg in method) i.g. 30 days
[8] = U251, low dose (25 mg/kg in method) i.g. 30 days
[9] = U251, medium dose (50 mg/kg in method) i.g. 30 days
[10] = TE-1, 12.5 mg/kg (low dose) i.g. 30 days
[11] = TE-1, 25 mg/kg (medium dose) i.g. 30 days
[12] = TE-1, 50 mg/kg (high dose) i.g. 30 days

COC1C(OC(C)=O)CC(=O)OC(C)CC=CC=CC(OC2CCC(N(C)C)C(C)O2)C(C)CC(CC=O)C1OC1OC(C)C(OC2CC(C)(O)C(OC(=O)CC(C)C)C(C)O2)C(N(C)C)C1O (stereo not drawn) [Isovaleryl spiramycin II, isovaleryl spiramycin II] was tested, and the “Inhibition Rate (tumor growth inhibition rate)” value [1, 4] was 23.49%, the “Relative Tumor Proliferation Rate (T/C)” value [1, 4] was 83.04% and the “Relative Tumor Volume (RTV)” value [1, 4] was 16.24 ± 6.00. The “Tumor Volume (d 1)” value [1, 4] was 154.86 ± 4.11 mm3, the “Tumor Volume (d 30)” value [1, 4] was 2404.85 ± 672.33 mm3 and the “Tumor Weight” value [1, 4] was 1.44 ± 0.56 g. For the same molecule, the “Inhibition Rate (tumor growth inhibition rate)” value [1, 5] was 40.16%, the “Relative Tumor Proliferation Rate (T/C)” value [1, 5] was 60.08% and the “Relative Tumor Volume (RTV)” value [1, 5] was 11.75 ± 3.78. The “Tumor Volume (d 1)” value [1, 5] was 157.25 ± 38.97 mm3, the “Tumor Volume (d 30)” value [1, 5] was 1729.14 ± 128.57 mm3 and the “Tumor Weight” value [1, 5] was 1.13 ± 0.43 g. For the same molecule, the “Inhibition Rate (tumor growth inhibition rate)” value [1, 6] was 50.44%, the “Relative Tumor Proliferation Rate (T/C)” value [1, 6] was 44.48% and the “Relative Tumor Volume (RTV)” value [1, 6] was 8.70 ± 2.61. The “Tumor Volume (d 1)” value [1, 6] was 131.11 ± 22.05 mm3, the “Tumor Volume (d 30)” value [1, 6] was 1162.46 ± 495.46 mm3 and the “Tumor Weight” value [1, 6] was 0.93 ± 0.27 g. The “tumor volume and relative tumor volume compared with the model group” value (shortened to “tumor volume and relative tumor volume”) ([1]; PC3, low, medium and high doses, P<0.05) was “significantly lower”, the “mouse weight compared with the model group” value ([1]; mouse, in vivo) was “no significant changes” and the “Relative Tumor Proliferation Rate (T/C)” value [2, 7] was 43.26%. For the same molecule, the “tumor growth inhibition rate” value [2, 7] was 40.26%, the “Relative Tumor Proliferation Rate (T/C)” value [2, 8] was 76.14% and the “tumor growth inhibition rate” value [2, 8] was 10.91%. For the same molecule, the “tumor volume and relative tumor volume” value ([2]; U251, low, medium and high doses, P<0.05) was “significantly lower”, the “Relative Tumor Proliferation Rate (T/C)” value [2, 9] was 51.88% and the “tumor growth inhibition rate” value [2, 9] was 15.81%. For the same molecule, the “Inhibition Rate (%)” value ([2]; U251 nude mice, 25 mg/kg) was 10.91%, the “Relative Tumor Proliferation Rate (T/C)” value ([2]; U251 nude mice, 25 mg/kg) was 76.14% and the “Relative Tumor Volume (RTV)” value ([2]; U251 nude mice, 25 mg/kg) was 14.73 ± 1.33. For the same molecule, the “Tumor Weight” value ([2]; U251 nude mice, 25 mg/kg) was 1.23 ± 0.12 g, the “Tumor Volume (mm3) (d 1)” value ([2]; U251 nude mice, 25 mg/kg) was 125.90 ± 11.45 mm3 and the “Tumor Volume (mm3) (d30)” value ([2]; U251 nude mice, 25 mg/kg) was 1596.45 ± 267.65 mm3. The “Inhibition Rate (%)” value ([2]; U251 nude mice, 50 mg/kg) was 15.81%, the “Relative Tumor Proliferation Rate (T/C)” value ([2]; U251 nude mice, 50 mg/kg) was 51.88% and the “Relative Tumor Volume (RTV)” value ([2]; U251 nude mice, 50 mg/kg) was 14.31 ± 0.98. For the same molecule, the “Tumor Weight” value ([2]; U251 nude mice, 50 mg/kg) was 1.16 ± 0.10 g, the “Tumor Volume (mm3) (d 1)” value ([2]; U251 nude mice, 50 mg/kg) was 118.33 ± 11.65 mm3 and the “Tumor Volume (mm3) (d30)” value ([2]; U251 nude mice, 50 mg/kg) was 1030.10 ± 207.19 mm3. For the same molecule, the “Inhibition Rate (%)” value ([2]; U251 nude mice, 100 mg/kg) was 40.26%, the “Relative Tumor Proliferation Rate (T/C)” value ([2]; U251 nude mice, 100 mg/kg) was 43.26% and the “Relative Tumor Volume (RTV)” value ([2]; U251 nude mice, 100 mg/kg) was 12.88 ± 1.54. For the same molecule, the “Tumor Weight” value ([2]; U251 nude mice, 100 mg/kg) was 0.83 ± 0.12 g, the “Tumor Volume (mm3) (d 1)” value ([2]; U251 nude mice, 100 mg/kg) was 122.74 ± 10.75 mm3 and the “Tumor Volume (mm3) (d30)” value ([2]; U251 nude mice, 100 mg/kg) was 890.78 ± 225.34 mm3. The “mouse weight compared with the model group” value ([2]; mouse, in vivo) was “no significant changes”, the “Body Weight (g) (d1)” value ([2]; mouse, in vivo, 25 mg/kg) was 20.77 ± 0.65 g and the “Body Weight (g) (d30)” value ([2]; mouse, in vivo, 25 mg/kg) was 20.85 ± 0.79 g. For the same molecule, the “Body Weight (g) (d1)” value ([2]; mouse, in vivo, 50 mg/kg) was 21.25 ± 0.46 g, the “Body Weight (g) (d30)” value ([2]; mouse, in vivo, 50 mg/kg) was 20.86 ± 0.43 g and the “Body Weight (g) (d1)” value ([2]; mouse, in vivo, 100 mg/kg) was 20.92 ± 0.82 g. For the same molecule, the “Body Weight (g) (d30)” value ([2]; mouse, in vivo, 100 mg/kg) was 21.47 ± 0.70 g, the “Inhibition Rate (tumor growth inhibition rate)” value [3, 10] was 24.87% and the “Relative Tumor Proliferation Rate (T/C)” value [3, 10] was 70.32%. For the same molecule, the “Relative Tumor Volume (RTV)” value [3, 10] was 7.92 ± 6.86, the “Tumor Volume (d 1)” value [3, 10] was 134.33 ± 57.77 mm3 and the “Tumor Volume (d 30)” value [3, 10] was 1027.37 ± 363.55 mm3. For the same molecule, the “Tumor Weight” value [3, 10] was 1.18 ± 0.60 g, the “Inhibition Rate (tumor growth inhibition rate)” value [3, 11] was 43.78% and the “Relative Tumor Proliferation Rate (T/C)” value [3, 11] was 50.51%. The “Relative Tumor Volume (RTV)” value [3, 11] was 6.99 ± 5.39, the “Tumor Volume (d 1)” value [3, 11] was 195.76 ± 76.95 mm3 and the “Tumor Volume (d 30)” value [3, 11] was 1075.36 ± 720.20 mm3. For the same molecule, the “Tumor Weight” value [3, 11] was 0.88 ± 0.46 g, the “Inhibition Rate (tumor growth inhibition rate)” value [3, 12] was 72.48% and the “Relative Tumor Proliferation Rate (T/C)” value [3, 12] was 36.49%. The “Relative Tumor Volume (RTV)” value [3, 12] was 6.97 ± 7.85, the “Tumor Volume (d 1)” value [3, 12] was 143.85 ± 16.25 mm3 and the “Tumor Volume (d 30)” value [3, 12] was 570.92 ± 293.97 mm3. The “Tumor Weight” value [3, 12] was 0.43 ± 0.26 g, the “tumor volume and relative tumor volume” value ([3]; TE-1, low, medium and high doses, P<0.05) was “significantly lower” and the “mouse weight compared with the model group” value ([3]; mouse, in vivo) was “no significant changes”.

— patent US20200163984A1, “USE OF ISOVALERYL SPIRAMYCIN I, II AND/OR III IN MANUFACTURING MEDICAMENT FOR TREATING AND/OR PREVENTING TUMOR, AND MEDICAMENT” (SHENYANG FUYANG PHARMACEUTICAL TECHNOLOGY CO., LTD., priority 2017, published 2020)
